US20160097044A1, “Antimicrobial Enzyme Fusions Reduce Resistance and Kill Intracellular Staphylococcus aureus” (The United States of America, as Represented by the …, priority 2014, published 2016)

Columns and labels:
[1] = system: MRSA strain NRS382 biofilms; test: Dynamic biofilm model, Live/Dead viability; type: cell-based, S. aureus; conditions: Staphylococcus aureus, 2 h, read-out: viability in dynamic biofilms (percentage of live cells; controls 100%)
Procedure: Biofilms were pre-stained with the Live/Dead stain (see methods) and viewed with 20× magnification. FIG. 9b depicts bacterial viability. Analysis of bacterial viability in NRS382 dynamic biofilms is based on mean fluorescent intensities of the Live/Dead viability stain when exposed to 100 μg/ml of PGH K-L (1.4 μM), K-L-PTD1 (1.4 μM), or vancomycin (69 μM) at a flow rate of 0.5 ml/min for 2 h and compared to PBS. Error bars represent SEM (N=3) of three independent 100×100 pixel squares identically located in each biofilm z-stack. […]
In order to visualize the viability of S. aureus NRS382 biofilms, each chamber of the flow cell was fluorescently labeled by the Live/Dead BacLight™ staining kit (Invitrogen, Carlsbad, Calif.) for one hour. […] To quantify the viability of S. aureus NRS382 biofilms at various time points in the presence of different treatments, one image at the center of z-series (i.e. center of the biofilm) for each time point was selected to represent each treatment group. Three squares representing 100×100 pixels were drawn in each image and the mean intensity of live (green channel) and dead (red channel) cell populations were calculated by Zen 2010 digital imaging software (Carl Zeiss). […] The percentage of live cells remaining in biofilms after various treatments was statistically analyzed by an unpaired t-test.

MRSA = conditions: systemically delivered, mouse models; cited from earlier work

| Structure (SMILES) | viability at 100 µg/mL [1] | protection from MRSA bacteremia / survival at 48 hours post infection (MRSA) |
| --- | --- | --- |
| CN[C@H](CC(C)C)C(=O)N[C@H]1C(=O)N[C@@H](CC(N)=O)C(=O)N[C@H]2C(=O)N[C@H]3C(=O)N[C@H](C(=O)N[C@H](C(=O)O)c4cc(O)cc(O)c4-c4cc3ccc4O)[C@H](O)c3ccc(c(Cl)c3)Oc3cc2cc(c3O[C@@H]2O[C@H](CO)[C@@H](O)[C@H](O)[C@H]2O[C@H]2C[C@](C)(N)[C@H](O)[C@H](C)O2)Oc2ccc(cc2Cl)[C@H]1O [vancomycin] | 40% |  |
| Cc1onc(-c2ccccc2)c1C(=O)N[C@@H]1C(=O)N2[C@@H]1SC(C)(C)[C@@H]2C(=O)O [oxacillin] |  | 20% |
